The source made the active and inactive calls.
Columns and labels:
[1] = Genotoxicity in Salmonella typhimurium TA100 assessed as number of revertant at 75 ug by AMES test (reference value: 64.3 to 130.7); assay type: toxicity, Salmonella enterica subsp. enterica serovar Typhimurium; conditions: in vivo; dose 75 µg
[2] = Genotoxicity in Salmonella typhimurium TA100 assessed as number of revertant at 10 ug by AMES test (reference value: 64.3 to 130.7); assay type: toxicity, Salmonella enterica subsp. enterica serovar Typhimurium; conditions: in vivo; dose 10 µg
[3] = Protection index, ratio of TD50 for toxicity in ip dosed mouse to ED50 for anticonvulsant activity in ip dosed mouse; assay type: organism-based; conditions: in vivo, read-out: PI
[4] = molecular target: T1, 5-hydroxytryptamine receptor 1A (Homo sapiens) (UniProt P08908); assay: Binding affinity to 5-HT1A (unknown origin) at 10^-5 M; conditions: dose 1.0 10^-5M
T1 sequence (whole entry): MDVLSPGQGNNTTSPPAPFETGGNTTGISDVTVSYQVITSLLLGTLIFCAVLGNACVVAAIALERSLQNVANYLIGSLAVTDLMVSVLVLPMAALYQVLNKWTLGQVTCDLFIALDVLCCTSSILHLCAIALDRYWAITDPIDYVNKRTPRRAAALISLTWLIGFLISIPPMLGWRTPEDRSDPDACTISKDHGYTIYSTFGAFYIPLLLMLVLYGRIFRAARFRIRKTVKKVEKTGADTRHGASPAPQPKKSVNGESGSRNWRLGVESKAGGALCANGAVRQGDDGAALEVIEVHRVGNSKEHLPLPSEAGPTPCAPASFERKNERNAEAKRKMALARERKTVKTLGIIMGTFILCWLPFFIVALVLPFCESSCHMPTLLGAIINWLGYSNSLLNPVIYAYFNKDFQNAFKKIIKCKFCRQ

[5] = in vitro; conditions: mouse, microsomes
Description: Metabolic stability in mouse microsome assessed as half life

[6] = Genotoxicity in Salmonella typhimurium TA98 assessed as mutagenic index at 200 ug by AMES test; assay type: toxicity, Salmonella enterica subsp. enterica serovar Typhimurium; conditions: in vivo; dose 200 µg
[7] = Genotoxicity in Salmonella typhimurium TA98 assessed as number of revertant at 10 ug by AMES test (reference value: 8 to 8.3); assay type: toxicity, Salmonella enterica subsp. enterica serovar Typhimurium; conditions: in vivo; dose 10 µg
[8] = Genotoxicity in Salmonella typhimurium TA100 assessed as mutagenic index at 200 ug by AMES test; assay type: toxicity, Salmonella enterica subsp. enterica serovar Typhimurium; conditions: in vivo; dose 200 µg
[9] = Drug metabolism in mouse microsome assessed as formation of monohydroxylated metabolite; assay type: ADME; conditions: microsomes
[10] = in vitro; conditions: mouse, microsomes; remark: listed apart in the source
Description: Metabolic stability in mouse microsome assessed as intrinsic clearance

[11] = Genotoxicity in Salmonella typhimurium TA98 assessed as number of revertant at 500 ug by AMES test (reference value: 8 to 8.3); assay type: toxicity, Salmonella enterica subsp. enterica serovar Typhimurium; conditions: in vivo; dose 500 µg
[12] = tested on: Mus musculus; assay: Anticonvulsant activity in ip dosed mouse assessed as protection against current-induced seizure by maximal electroshock seizure test; assay type: functional
[13] = Genotoxicity in Salmonella typhimurium TA100 assessed as mutagenic index at 10 ug by AMES test; assay type: toxicity, Salmonella enterica subsp. enterica serovar Typhimurium; conditions: in vivo; dose 10 µg
[14] = Genotoxicity in Salmonella typhimurium TA98 assessed as mutagenic index at 10 ug by AMES test; assay type: toxicity, Salmonella enterica subsp. enterica serovar Typhimurium; conditions: in vivo; dose 10 µg
[15] = Genotoxicity in Salmonella typhimurium TA98 assessed as number of revertant at 750 ug by AMES test (reference value: 8 to 8.3); assay type: toxicity, Salmonella enterica subsp. enterica serovar Typhimurium; conditions: in vivo; dose 750 µg
[16] = Genotoxicity in Salmonella typhimurium TA98 assessed as number of revertant at 200 ug by AMES test (reference value: 8 to 8.3); assay type: toxicity, Salmonella enterica subsp. enterica serovar Typhimurium; conditions: in vivo; dose 200 µg
[17] = Genotoxicity in Salmonella typhimurium TA100 assessed as number of revertant at 500 ug by AMES test (reference value: 64.3 to 130.7); assay type: toxicity, Salmonella enterica subsp. enterica serovar Typhimurium; conditions: in vivo; dose 500 µg
[18] = Genotoxicity in Salmonella typhimurium TA98 assessed as mutagenic index at 75 ug by AMES test; assay type: toxicity, Salmonella enterica subsp. enterica serovar Typhimurium; conditions: in vivo; dose 75 µg
[19] = Genotoxicity in Salmonella typhimurium TA98 assessed as mutagenic index at 500 ug by AMES test; assay type: toxicity, Salmonella enterica subsp. enterica serovar Typhimurium; conditions: in vivo; dose 500 µg
[20] = Genotoxicity in Salmonella typhimurium TA98 assessed as mutagenic index at 750 ug by AMES test; assay type: toxicity, Salmonella enterica subsp. enterica serovar Typhimurium; conditions: in vivo; dose 750 µg
[21] = Genotoxicity in Salmonella typhimurium TA100 assessed as mutagenic index at 75 ug by AMES test; assay type: toxicity, Salmonella enterica subsp. enterica serovar Typhimurium; conditions: in vivo; dose 75 µg
[22] = Genotoxicity in Salmonella typhimurium TA100 assessed as mutagenic index at 500 ug by AMES test; assay type: toxicity, Salmonella enterica subsp. enterica serovar Typhimurium; conditions: in vivo; dose 500 µg
[23] = Genotoxicity in Salmonella typhimurium TA98 assessed as number of revertant at 75 ug by AMES test (reference value: 8 to 8.3); assay type: toxicity, Salmonella enterica subsp. enterica serovar Typhimurium; conditions: in vivo; dose 75 µg
[24] = Genotoxicity in Salmonella typhimurium TA100 assessed as number of revertant at 200 ug by AMES test (reference value: 64.3 to 130.7); assay type: toxicity, Salmonella enterica subsp. enterica serovar Typhimurium; conditions: in vivo; dose 200 µg
[25] = Toxicity in ip dosed mouse assessed as motor impairment by rotarod test; assay type: organism-based; conditions: in vivo
[26] = Toxicity in mouse assessed as lethality at 30 mg/kg, ip; assay type: organism-based; conditions: in vivo
[27] = Toxicity in mouse assessed as lethality at 50 mg/kg, ip; assay type: organism-based; conditions: in vivo
[28] = tested on: Bacteroides fragilis; assay: Antimicrobial activity against Bacteroides fragilis ATCC 25285 assessed as reduction in bacterial growth at 0.195 to 100 ug/ml by disk diffusion method; assay type: organism-based; conditions: in vivo, dose 0.195-100 µg/ml
[29] = Toxicity in mouse assessed as lethality at 10 mg/kg, ip; assay type: organism-based; conditions: in vivo
[30] = molecular target: T2, 5-hydroxytryptamine receptor 1A (Homo sapiens, UniProt P08908); assay: Binding affinity to 5-HT1A (unknown origin)
T2 sequence (P08908 whole entry): T1 sequence (whole entry)

[31] = tested on: Salmonella enterica; assay: Antimicrobial activity against Salmonella enterica ATCC 51957 assessed as reduction in bacterial growth at 0.195 to 100 ug/ml by serial dilution method; assay type: organism-based; conditions: in vivo, dose 0.195-100 µg/ml
[32] = tested on: Mus musculus; assay: Antiallodynic activity in mouse model of OXA-induced peripheral neuropathy assessed as mean latency time to nocifensive response at 18 mg/kg, ip administered after 3 hrs of OXA stimulation and measured after 1 hr by cold plate method (reference value: 59.76 +/- 0.16 sec); assay type: functional
[33] = tested on: Escherichia coli; assay: Antimicrobial activity against Escherichia coli ATCC 35218 assessed as reduction in bacterial growth at 0.195 to 100 ug/ml by serial dilution method; assay type: organism-based; conditions: in vivo, dose 0.195-100 µg/ml
[34] = tested on: Mus musculus; assay: Antiallodynic activity in mouse model of OXA-induced peripheral neuropathy assessed as mean paw withdrawal threshold at 18 mg/kg, ip administered after 3 hrs of OXA stimulation and measured after 1 hr by Von-frey method (reference value: 3.144 +/- 0.169 g); assay type: functional
[35] = tested on: Mus musculus; assay: Antiallodynic activity in mouse model of OXA-induced peripheral neuropathy assessed as mean paw withdrawal threshold at 18 mg/kg, ip administered after 7 days of OXA stimulation and measured after 1 hr by Von-frey method (reference value: 3.192 +/- 0.181 g); assay type: functional
[36] = tested on: Staphylococcus aureus; assay: Antimicrobial activity against clinical strain Staphylococcus aureus assessed as reduction in bacterial growth at 0.195 to 100 ug/ml by serial dilution method; assay type: organism-based; conditions: in vivo, dose 0.195-100 µg/ml
[37] = tested on: Clostridioides difficile; assay: Antimicrobial activity against clinical strain Clostridium difficile assessed as reduction in bacterial growth at 0.195 to 100 ug/ml by disk diffusion method; assay type: organism-based; conditions: in vivo, dose 0.195-100 µg/ml
[38] = Antioxidant activity assessed as DPPH radical scavenging activity at 125 to 1000 uM by microplate method; assay type: functional; conditions: dose microM 125-1000
[39] = tested on: Hoylesella loescheii; assay: Antimicrobial activity against Prevotella loescheii ATCC 15930 assessed as reduction in bacterial growth at 0.195 to 100 ug/ml by disk diffusion method; assay type: organism-based, DSM 19665 = JCM 12249 = ATCC 15930; conditions: in vivo, dose 0.195-100 µg/ml
[40] = tested on: Escherichia coli; assay: Antimicrobial activity against Escherichia coli ATCC 25922 assessed as reduction in bacterial growth at 0.195 to 100 ug/ml by serial dilution method; assay type: organism-based; conditions: in vivo, dose 0.195-100 µg/ml
[41] = tested on: Enterococcus faecalis; assay: Antimicrobial activity against Enterococcus faecalis ATCC 29212 assessed as reduction in bacterial growth at 0.195 to 100 ug/ml by serial dilution method; assay type: organism-based; conditions: in vivo, dose 0.195-100 µg/ml
[42] = tested on: Staphylococcus aureus; assay: Antimicrobial activity against Staphylococcus aureus ATCC 25923 assessed as reduction in bacterial growth at 0.195 to 100 ug/ml by serial dilution method; assay type: organism-based; conditions: in vivo, dose 0.195-100 µg/ml
[43] = Antimicrobial activity against clinical strain Bifidobacterium assessed as reduction in bacterial growth at 0.195 to 100 ug/ml by disk diffusion method; conditions: dose 0.195-100 µg/ml
[44] = tested on: Mus musculus; assay: Antiallodynic activity in mouse model of OXA-induced peripheral neuropathy assessed as mean latency time to nocifensive response at 18 mg/kg, ip administered after 7 days of OXA stimulation and measured after 1 hr by cold plate method (reference value: 57.64 +/- 1.267 sec); assay type: functional

## Cc1cccc(C)c1OCCOCCNC1CCC(O)CC1.Cl (centres undefined)
[1]
  Activity: 312.3
[2]
  Activity: 226.7
[3]
  selectivity ratio: 3.99
[4]
  Activity: inactive
[5]
  half-life: 1.46 h
[6]
  Activity_index: 1.2
[7]
  Activity: 8
[8]
  Activity_index: 0.8
[9]
  Drug metabolism: Metabolite_Detected
[10]
  microsomal CLint: 19.8 µL/min/mg
[11]
  Activity: 6.7
[12]
  ED50: 33 mg/kg
[13]
  Activity_index: 3.1
[14]
  Activity_index: 1
[15]
  Activity: 3
[16]
  Activity: 9.3
[17]
  Activity: 274.3
[18]
  Activity_index: 1
[19]
  Activity_index: 0.8
[20]
  Activity_index: 0.4
[21]
  Activity_index: 4.3
[22]
  Activity_index: 3.8
[23]
  Activity: 8.3
[24]
  Activity: 55
[25]
  TD50: 132 mg/kg

## Cc1cc(C)c(OCCCN[C@H]2CC[C@H](O)CC2)c(C)c1
[26]
  Activity: Toxic

## CC[C@@H](CO)NCCOCCOc1ccc(C)cc1C.Cl
[3]
  selectivity ratio: 2.33
[12]
  ED50: 40.5 mg/kg
[25]
  TD50: 94.4 mg/kg

## Cc1ccc(OCCCN2CCC(O)CC2)c(C)c1
[27]
  Activity: Non-Toxic

## Cc1cc(C)c(OCCCN2CCCC(O)C2)c(C)c1.Cl (racemic)
[3]
  selectivity ratio: 3.86
[5]
  half-life: 0.648 h
[28]
  Activity: Non-Toxic
[9]
  Drug metabolism: Metabolite_Detected
[29]
  Activity: Non-Toxic
[10]
  microsomal CLint: 44.5 µL/min/mg
[12]
  ED50: 18.2 mg/kg
[30]
  Ki: 3.39 µM
[31]
  Activity: Non-Toxic
[26]
  Activity: Non-Toxic
[32]
  Time: 18.18 s
[33]
  Activity: Non-Toxic
[34]
  Activity: 1.958 g
[35]
  Activity: 1.947 g
[36]
  Activity: Non-Toxic
[37]
  Activity: Non-Toxic
[38]
  Activity: inactive
[39]
  Activity: Non-Toxic
[40]
  Activity: Non-Toxic
[41]
  Activity: Non-Toxic
[42]
  Activity: Non-Toxic
[43]
  Activity: Non-Toxic
[44]
  Time: 10.65 s
[25]
  TD50: 70.2 mg/kg

Source: ChEMBL document CHEMBL4725268, “Anticonvulsant and analgesic in neuropathic pain activity in a group of new aminoalkanol derivatives” (Bioorg Med Chem Lett, 2020)
